The nature of series [1]: MCF-7 xenograft model, survival. The format is in vivo, BALB/c nude mice. The note with it: MCF-7 model, 9.6 μmol/kg, n=6. The method, then:
All animal experiments were conducted in accordance with protocols approved by the Institutional Animal Care and Use Committee of Peking Union Medical College. Male BALB/c nude mice (6–8 weeks old) and female KM mice (6–8 weeks old) were purchased from Charles River Laboratories (Beijing, China) and maintained under specific pathogen-free conditions.
MCF-7 Breast Cancer Model: Female BALB/c nude mice bearing MCF-7 xenografts (2×10^6 cells/mouse) were randomized into treatment groups as described above, with an adjusted dose of 9.6 μmol/kg for all CTX formulations.

The target of the next series is T1, tubulin (Sus scrofa, UniProt P02554).
T1 construct: purchased Cytoskeleton BK006P
T1 sequence (P02554 whole entry): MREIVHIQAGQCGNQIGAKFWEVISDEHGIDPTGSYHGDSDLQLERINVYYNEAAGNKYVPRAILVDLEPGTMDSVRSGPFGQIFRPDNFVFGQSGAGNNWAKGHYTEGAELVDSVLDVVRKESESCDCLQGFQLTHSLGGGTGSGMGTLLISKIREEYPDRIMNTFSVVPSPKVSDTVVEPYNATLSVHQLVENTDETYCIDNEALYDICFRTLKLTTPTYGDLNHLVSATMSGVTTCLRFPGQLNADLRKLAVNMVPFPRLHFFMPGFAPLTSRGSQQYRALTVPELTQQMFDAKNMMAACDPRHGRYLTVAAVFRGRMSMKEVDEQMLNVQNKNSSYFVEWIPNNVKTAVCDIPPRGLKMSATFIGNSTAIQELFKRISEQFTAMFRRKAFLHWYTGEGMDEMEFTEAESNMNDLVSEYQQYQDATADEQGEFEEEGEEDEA
T1 sequence (P02550 whole entry partner): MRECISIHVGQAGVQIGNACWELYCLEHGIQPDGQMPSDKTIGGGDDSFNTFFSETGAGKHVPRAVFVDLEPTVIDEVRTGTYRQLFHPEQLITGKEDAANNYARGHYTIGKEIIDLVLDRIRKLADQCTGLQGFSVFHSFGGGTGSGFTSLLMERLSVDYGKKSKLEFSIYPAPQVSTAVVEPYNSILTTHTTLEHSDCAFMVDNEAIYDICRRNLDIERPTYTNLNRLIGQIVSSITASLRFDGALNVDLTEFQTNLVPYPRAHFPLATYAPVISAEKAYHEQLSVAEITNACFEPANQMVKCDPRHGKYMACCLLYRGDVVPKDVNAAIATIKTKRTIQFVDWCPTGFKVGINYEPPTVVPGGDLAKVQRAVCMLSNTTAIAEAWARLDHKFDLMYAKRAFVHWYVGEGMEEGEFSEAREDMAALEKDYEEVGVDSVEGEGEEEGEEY
The experiment in a line: Purified tubulin polymerization. The format is biochemical. Particulars: purified tubulin 3 mg/ml, 37°C. The method, then: A tubulin polymerization assay kit (Cytoskeleton, BK006P) was used. Briefly, 10 μl of CTXs with a concentration of 100 μM in the general tubulin buffer and 100 μl of tubulin (3 mg/ml) in TP buffer were added on ice. The 96-well plate was immediately placed in a microplate reader at 37°C.

In series [1], `CO[C@H]1C(=O)[C@]2(C)[C@@H](OC)C[C@H]3OC[C@@]3(OC(C)=O)[C@H]2[C@H](OC(=O)c2ccccc2)[C@]2(O)C[C@H](OC(=O)[C@H](O)[C@@H](NC(=O)OC(C)(C)C)c3ccccc3)C(C)=C1C2(C)C` [CTX, Cabazitaxel] displayed a survival of 83.3%.
As for `COC1C(=O)C2(C)C(OC)CC3OCC3(OC(C)=O)C2C(OC(=O)c2ccccc2)C2(O)CC(OC(=O)C(OC(=O)CN(CCN(CCN(CC(=O)O)CC(=O)O)CC(=O)O)CC(=O)O)C(NC(=O)OC(C)(C)C)c3ccccc3)C(C)=C1C2(C)C` (centres unmarked) [CTX-DTPA], the polymerization kinetics at tubulin turned out to be 43.7 ± 8.0 mOD/min.
